From ChEMBL document CHEMBL4196029, “New MD2 inhibitors derived from curcumin with improved anti-inflammatory activity” (Eur J Med Chem, 2018)
Calls of active or inactive are those of the source. No cut-off for these calls is given here.

How the values were obtained:
[1] = test system: Peritoneal macrophage; assay: Anti-inflammatory activity in C57BL/6 mouse primary peritoneal macrophages assessed as inhibition of LPS-induced TNFalpha secretion at 1 to 10 uM preincubated for 30 mins followed by LPS addition measured after 24 hrs by ELISA; assay type: functional, cell-based
[2] = test system: Peritoneal macrophage; assay: Anti-inflammatory activity in C57BL/6 mouse primary peritoneal macrophages assessed as inhibition of LPS-induced IL-6 secretion at 1 uM preincubated for 30 mins followed by LPS addition measured after 24 hrs by ELISA relative to control; assay type: functional; conditions: C57BL/6, Peritoneal macrophage
[3] = test system: Peritoneal macrophage; assay: Inhibition of LPS-induced TNFalpha mRNA expression in C57BL/6 mouse primary peritoneal macrophages at 10 uM preincubated for 30 mins followed by LPS addition measured after 24 hrs by qRT-PCR analysis; assay type: functional, cell-based
[4] = test system: Rattus norvegicus; assay: (§1) Anti-inflammatory activity in Sprague-Dawley rat model of LPS-induced acute lung injury assessed as reduction in pulmonary edema at 20 mg/kg, po administered daily for 1 week followed by LPS addition at 30 mins post last dose measured after 6 hrs; assay type: functional, organism-based
[5] = test system: Rattus norvegicus; assay: as §1, with “macrophage mobilization to lungs by measuring tissue content of CD68” for “pulmonary edema”, “hrs by DAB staining based light microscopic method” for “hrs”; assay type: functional, organism-based
[6] = test system: Mus musculus; assay: Anti-inflammatory activity in C57BL/6 mouse model of LPS-induced sepsis assessed as survival at 10 mg/kg, iv administered 15 mins prior to LPS treatment measured for 7 days (reference value: 10 to 30%); assay type: functional; conditions: C57BL/6, iv
[7] = biological target: Mitogen-activated protein kinase 1 (Homo sapiens) (UniProt P28482); assay: Inhibition of recombinant human full length N-terminal GST-tagged ERK2 (1 to 360 end residues) expressed in Escherichia coli at 10 uM after 1 hr by caliper mobility shift assay relative to control
[8] = biological target: Interleukin-1 receptor-associated kinase 1 (Homo sapiens) (UniProt P51617); assay: Inhibition of recombinant human N-terminal GST-tagged IRAK1 (194 to 712 residues) expressed in baculovirus expression system at 0.1 uM after 1 hr by caliper mobility shift assay relative to control
[9] = biological target: T1, Inhibitor of nuclear factor kappa-B kinase subunit beta (Homo sapiens) (UniProt O14920); assay: Inhibition of recombinant human N-terminal His-tagged IKKbeta (1 to 662 residues) expressed in baculovirus expression system at 10 uM after 1 hr by caliper mobility shift assay relative to control
T1 sequence (whole entry): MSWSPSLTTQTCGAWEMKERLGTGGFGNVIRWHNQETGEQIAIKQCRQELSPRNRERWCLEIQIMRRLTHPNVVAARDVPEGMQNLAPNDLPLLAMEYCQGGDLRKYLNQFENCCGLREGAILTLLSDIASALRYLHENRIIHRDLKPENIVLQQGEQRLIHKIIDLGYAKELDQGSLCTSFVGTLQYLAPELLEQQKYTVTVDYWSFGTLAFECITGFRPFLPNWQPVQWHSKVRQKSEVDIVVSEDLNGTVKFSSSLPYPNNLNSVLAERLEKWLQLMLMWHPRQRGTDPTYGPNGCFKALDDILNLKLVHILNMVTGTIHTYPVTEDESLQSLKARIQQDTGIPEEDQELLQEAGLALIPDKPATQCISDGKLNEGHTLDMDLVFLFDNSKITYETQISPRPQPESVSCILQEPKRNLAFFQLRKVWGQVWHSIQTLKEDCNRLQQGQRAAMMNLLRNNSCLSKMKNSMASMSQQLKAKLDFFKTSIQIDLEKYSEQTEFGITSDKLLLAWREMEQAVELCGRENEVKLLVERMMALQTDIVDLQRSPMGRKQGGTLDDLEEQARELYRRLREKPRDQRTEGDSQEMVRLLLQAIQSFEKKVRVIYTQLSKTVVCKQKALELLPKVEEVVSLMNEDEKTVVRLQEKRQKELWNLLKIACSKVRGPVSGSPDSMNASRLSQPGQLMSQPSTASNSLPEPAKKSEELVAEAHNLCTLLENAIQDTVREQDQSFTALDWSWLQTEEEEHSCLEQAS

[10] = biological target: T1, Inhibitor of nuclear factor kappa-B kinase subunit beta (Homo sapiens); assay: Inhibition of recombinant human N-terminal His-tagged IKKbeta (1 to 662 residues) expressed in baculovirus expression system at 1 uM after 1 hr by caliper mobility shift assay relative to control
[11] = test system: Rattus norvegicus; assay: Anti-inflammatory activity in Sprague-Dawley rat model of LPS-induced acute lung injury assessed as reduction in IL-1beta mRNA level in lungs at 20 mg/kg, po administered daily for 1 week followed by LPS addition at 30 mins post last dose measured after 6 hrs by qRT-PCR method; assay type: functional, organism-based
[12] = test system: Rattus norvegicus; assay: Anti-inflammatory activity in Sprague-Dawley rat model of LPS-induced acute lung injury assessed as reduction in TNFalpha level in BALF at 20 mg/kg, po administered daily for 1 week followed by LPS addition at 30 mins post last dose measured after 6 hrs by ELISA; assay type: functional, organism-based
[13] = test system: Rattus norvegicus; assay: Anti-inflammatory activity in Sprague-Dawley rat model of LPS-induced acute lung injury assessed as reduction in TNFalpha level in serum at 20 mg/kg, po administered daily for 1 week followed by LPS addition at 30 mins post last dose measured after 6 hrs by ELISA; assay type: functional, organism-based
[14] = test system: Rattus norvegicus; assay: Anti-inflammatory activity in Sprague-Dawley rat model of LPS-induced acute lung injury assessed as reduction in ICAM1 mRNA level in lungs at 20 mg/kg, po administered daily for 1 week followed by LPS addition at 30 mins post last dose measured after 6 hrs by qRT-PCR method; assay type: functional, organism-based
[15] = test system: Rattus norvegicus; assay: Anti-inflammatory activity in Sprague-Dawley rat model of LPS-induced acute lung injury assessed as reduction in VCAM1 mRNA level in lungs at 20 mg/kg, po administered daily for 1 week followed by LPS addition at 30 mins post last dose measured after 6 hrs by qRT-PCR method; assay type: functional, organism-based

Chain of Mitogen-activated protein kinase 1 (Homo sapiens) (P28482 whole entry, the tested form may be a part): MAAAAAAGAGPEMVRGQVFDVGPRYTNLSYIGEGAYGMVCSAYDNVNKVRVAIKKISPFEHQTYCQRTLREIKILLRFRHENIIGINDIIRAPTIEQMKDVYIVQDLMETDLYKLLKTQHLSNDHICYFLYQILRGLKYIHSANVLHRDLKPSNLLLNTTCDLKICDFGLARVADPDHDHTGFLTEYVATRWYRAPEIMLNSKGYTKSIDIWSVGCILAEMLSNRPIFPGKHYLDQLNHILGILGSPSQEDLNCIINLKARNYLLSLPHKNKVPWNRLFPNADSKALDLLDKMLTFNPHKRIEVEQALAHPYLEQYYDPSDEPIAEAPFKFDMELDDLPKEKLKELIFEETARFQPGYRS
Chain of Interleukin-1 receptor-associated kinase 1 (Homo sapiens) (P51617 whole entry, looked up, the tested form may be a part): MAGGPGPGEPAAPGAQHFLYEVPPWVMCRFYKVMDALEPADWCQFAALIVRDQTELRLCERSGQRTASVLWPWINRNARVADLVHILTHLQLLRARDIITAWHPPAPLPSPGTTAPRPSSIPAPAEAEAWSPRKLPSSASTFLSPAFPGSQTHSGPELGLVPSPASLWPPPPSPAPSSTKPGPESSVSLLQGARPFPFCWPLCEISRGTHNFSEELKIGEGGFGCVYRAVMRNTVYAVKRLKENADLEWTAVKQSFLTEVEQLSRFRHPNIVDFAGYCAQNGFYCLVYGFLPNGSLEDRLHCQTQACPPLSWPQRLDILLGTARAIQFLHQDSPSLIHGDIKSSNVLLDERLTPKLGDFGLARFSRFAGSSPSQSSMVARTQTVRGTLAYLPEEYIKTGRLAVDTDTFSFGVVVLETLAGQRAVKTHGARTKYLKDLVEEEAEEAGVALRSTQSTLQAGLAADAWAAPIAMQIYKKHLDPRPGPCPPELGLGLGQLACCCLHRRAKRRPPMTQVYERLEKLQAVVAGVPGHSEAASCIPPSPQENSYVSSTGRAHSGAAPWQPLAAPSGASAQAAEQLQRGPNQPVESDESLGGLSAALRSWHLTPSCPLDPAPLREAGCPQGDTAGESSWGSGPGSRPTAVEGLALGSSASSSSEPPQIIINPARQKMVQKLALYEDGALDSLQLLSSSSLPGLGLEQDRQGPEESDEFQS

Row | SMILES | inhibition [1] | inhibition at 1 µM [2] | inhibition [3] | Activity [4] | Activity [5] | survival at 10 mg/kg [6] | inhibition [7] | inhibition [8] | inhibition [9] | inhibition [10] | Activity [11] | Activity [12] | Activity [13] | Activity [14] | Activity [15]
1 | COc1cc(/C=C2\COC/C(=C\c3cc(OC)c(OC)c(OC)c3)C2=O)cc(OC)c1OC | Active | > 90% | Active | Active | Active | 70% | 7.4% | 15.9% | 7.9% | 13.3% |  |  |  |  | 
2 | COc1cc(/C=C2\CN(C)C/C(=C\c3cc(OC)c(OC)c(OC)c3)C2=O)cc(OC)c1OC | Active | > 90% | Active | Active | Active | 90% | 8.7% | 7.7% | 12.8% | 6.3% | Active | Active | Active | Active | Active
